# Measurements taken from publication PMC6501426 (Clinical Epigenetics, 2019).
# Tested on: MMP2 protein in PC-3 cells
# Assay: Western blot of MMP2 in PC-3
# Format: cell-based, human
# Conditions: 1 μM, 24 h
# Excerpt: Cells were lysed in Laemmli buffer; subsequently, the proteins were resolved by sodium dodecyl sulfate-polyacrylamide gel electrophoresis and transferred to a 0.45-μm nitrocellulose membrane (Bio-Rad Laboratories, Hercules, CA). The following primary antibodies were used for immunoblotting: α-E-cadherin (BD Transduction Laboratories, Franklin Lakes, NJ), α-MMP2 (Abcam), α-DNMT3a (Santa Cruz Biotechnologies, Dallas, TX), and α-GAPDH (Millipore Corp., Bedford, MA), used as a loading control. The immune complexes were detected with horseradish peroxidase-conjugated species-specific secondary antiserum (Bio-Rad Laboratories, Milan, Italy) then by enhanced chemiluminescence reaction (Bio-Rad Laboratories, Milan, Italy). Densitometric analysis of protein expression was performed by using the Fiji ImageJ image processing package.
# Fig. 8 Effects of MC3353 on E-cadherin and MMP2 protein expression levels in PC-3 cancer cells. Cells were treated with vehicle (DMSO) used as control (CTR) or MC3353 for 24 h. a E-cadherin and MMP2 protein detection by western blot. GAPDH was used as a loading control. Blots are representative of three independent experiments. b Densitometric analysis of E-cadherin and MMP2 protein expression. Significance is represented as *p < 0.05 related to the control groups. Data were obtained from three independent experiments and expressed as mean ± SEM
smiles,measurement,value
"O=C(Nc1ccc(NC(=O)c2ccc(Nc3ccnc4ccccc34)cc2)cc1)OCc1ccccc1 [MC3353, Benzyl (4-(4-(quinolin-4-ylamino)benzamido)phenyl)carbamate]","MMP2 protein level (western blot, densitometry), PC-3",reduced MMP2 protein levels
